# From US7943173B2, “Pharmaceutical combinations of oxycodone and naloxone” (Purdue Pharma L.P., priority 2001, dated 2011)
# Counter-ions that a name gives are not always drawn. Marks after values point to notes of the source that are not given here.
# What was measured:
# clinical [1] = conditions: both, human, plasma, oral
# Experimental: Up to 96 subjects were to be enrolled in order to complete a minimum of 48 subjects who were evaluable for pharmacokinetics. […] Subjects successfully completing the Narcan® challenge were randomly assigned to 1 of 2 crossover treatment sequences (reference to test or test to reference) with a 5-day washout period separating dosing in the 2 periods. Subjects were confined to the study facility continuously from Day-1 until Day 10. […] All doses were administered with 8 ounces of water after an overnight fast (excluding water). […] Plasma concentrations of oxycodone and naloxone (as applicable) were determined, and pharmacokinetic metrics were calculated and analyzed. […] For the purpose of statistical analyses, Period 1 was defined as the time from administration of the first dose (Day 2) to just prior to administration of the second dose (Day 7). Period 2 was defined as the time from administration of the second dose (Day 7) to the time of the 72-hour postdose blood collection on Day 10.
# clinical [2] = conditions: both, human, plasma; for AUC(0-t): AUCt; for AUC(0-t) / Cmax / Tmax: plasma naloxone
# Experimental: In Example 8, a single-center, open-label, randomized, 4-period, 4-sequence, 4-treatment crossover study in 18 normal, healthy, young adult, male and female subjects under fasted conditions was conducted. […] Subjects were randomly assigned to four sequences with periods consisting of the following: • Period 1 was Days 1-8 (from the time of the first dose until the time of the second dose), • Period 2 was Days 8-15 (from the time of the second dose until the third dose), • Period 3 was Days 15-22 (from the third dose until the fourth dose), and • Period 4 was Days 22 (from the time of the last dose until the end of the study).
# Dosing took place on Days 1, 8, 15, and 22. For the duration of the study, subjects were instructed not to engage in heavy exercise.
# Talwin® Nx was administered with 8 ounces of water, which the subjects drank completely. Afterwards, mouth inspections were done to ensure that each subject swallowed the tablet.
# Following the single oral dose of naloxone, subjects drank two additional 75 ml rinses of water, for a total volume of 225 ml. For divided doses (also 0.02 mg/ml), the first dose was followed by two 94 ml rinses of water, and subsequent doses were followed by two 75 ml rinses of water.
# Intravenous naloxone was administered by IV push. Following IV naloxone, subjects were observed by staff members continuously for at least 20 minutes.
# Each subject received each treatment one time. Each treatment followed an overnight fast (excluding water) of at least 10 hours, and after dosing, the subjects fasted for an additional 4 hours. Except for the days of dosings, there were no food restrictions. While subjects were confined to the clinical unit all meals were served at standardized times, and the content was standardized throughout the study and between subjects. Meal records were maintained, including content. No caffeine or xanthine-containing beverages were served while the subjects were in the clinical facility.
# [3] = Example 8: adverse events; format: in vivo, human
# Experimental: There were no deaths or serious adverse events. No subjects discontinued because of adverse events. The majority of drug-related adverse events occurred when subjects were dosed with Talwin® Nx. These included nausea, vomiting, dizziness, and headache. One subject withdrew consent due to a schedule conflict.
# Eleven of 18 subjects experienced a total of 25 adverse events, none serious. Seven of these subjects experienced adverse events described as possibly, probably, or definitely related to the study medication. Overall, adverse events were more frequently reported in subjects receiving Talwin® Nx, consistent with expected adverse events related to pentazocine. All subjects recovered from all adverse events. No action (e.g., discontinuation) was taken with regard to the study drug.
# [4] = conclusions of the study, treatment not named
# [5] = iv, 0.5 mg, 0.5 mg IV naloxone HCl, arithmetic mean (SD)
# [6] = po, 1.5 mg, 1.5 mg naloxone HCl oral divided doses, arithmetic mean (SD)
# [7] = po, 1.5 mg, 1.5 mg naloxone HCl single oral dose, 18 subjects, arithmetic mean (SD)
smiles,measurement,setting,value
"C=CCN1CC[C@]23c4c5ccc(O)c4O[C@H]2C(=O)CC[C@@]3(O)[C@H]1C5 [Naloxone HCl, naloxone hydrochloride]",Cmax,clinical [1],0.00213 ± 0.00447 ng/mL
same,Tmax,clinical [1],3.35 ± 3.69 h
same,half-life,clinical [1],4.3 ± 3.03 h
same,"AUC0-∞, dose normalized","Dose Normalized to 0.5 mg IV Naloxone HCl dose, 0.5 mg IV arm, 15 subjects",3051 (668)^a pg · h/ml
same,Mean naloxone peak exposure,[4],8 pg/mL
same,"naloxone peak exposure, range",[4],0 to 16.6 pg/mL
same,AUC(0-inf),"clinical [2]; iv, 0.5 mg",3.05 ng·h/mL
same,clearance,"clinical [2]; iv, 0.5 mg",2850 mL/min
same,AUC(0-t),"clinical [2]; iv, 0.5 mg, 0.5 mg IV naloxone HCl, fasted healthy subjects, arithmetic mean (SD)",3.2 ng·h/mL
same,Cmax,clinical [2]; [5],6.25 ng/mL
same,half-life,"clinical [2]; iv, 0.5 mg, t1/2, plasma naloxone, 0.5 mg IV naloxone HCl, 15 subjects, arithmetic mean (SD)",0.92 h
same,Tmax,clinical [2]; [5],0.14 h
same,AUC(0-t),"clinical [2]; po, 1.5 mg, 1.5 mg naloxone HCl oral divided doses (0, 3, 6, 9 h), arithmetic mean (SD)",0.0649 ng·h/mL
same,AUC(0-t),"clinical [2]; po, 1.5 mg, 1.5 mg naloxone HCl single oral dose (solution), 18 subjects, arithmetic mean (SD)",0.0474 ng·h/mL
same,Cmax,clinical [2]; [6],0.0134 ng/mL
same,Cmax,clinical [2]; [7],0.023 ng/mL
same,bioavailability,"clinical [2]; po, 1.5 mg, F (%) absolute bioavailability, 1.5 mg naloxone HCl oral divided doses, based on AUCt, mean (SD)",0.66%
same,bioavailability,"clinical [2]; po, 1.5 mg, F (%) absolute bioavailability, 1.5 mg naloxone HCl single oral dose, based on AUCt, mean (SD)",0.47%
same,Tmax,clinical [2]; [6],3.18 h
same,Tmax,clinical [2]; [7],0.78 h
same,bioavailability,"clinical [2]; po, absolute bioavailability of naloxone, all three oral treatments studied",< 1%
same,"adverse events considered possibly, probably, or definitely related to study drug",[3]; 0.5 mg intravenous naloxone,nausea possibly related
same,"adverse events considered possibly, probably, or definitely related to study drug",[3]; 1.5 mg oral naloxone in divided doses,headache possibly related
same,tolerability,"[3]; given alone, total doses of 0.5 mg IV and up to 1.5 mg orally",well tolerated
same,adverse events during the naloxone challenge test,"[3]; intravenous challenge at screening, 18 subjects randomized",No adverse events were observed
